# Assay results reported in PubChem BioAssay (NCI).
#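 Cultured in 96-well plates, cells were exposed to test compound for 48 hours across five concentrations. At the GI50, growth is halved. Definition used: TGI = concentration required for complete inhibition of growth.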
# Tests used:
# Test in all cases: DTP human tumour cell line panel, 48 h
# [1] = tested on: HCT-116 colon
# [2] = tested on: SR leukemia
# [3] = tested on: OVCAR-8 ovarian
# [4] = tested on: SF-295 CNS
# [5] = tested on: A549 NSCLC
# [6] = tested on: HOP-62 NSCLC
# [7] = tested on: SF-268 CNS
# [8] = tested on: SK-OV-3 ovarian
# [9] = tested on: ACHN renal
# [10] = tested on: TK-10 renal
SMILES,TGI [1] [µM],TGI [2] [µM],TGI [3] [µM],TGI [4] [µM],TGI [5] [µM],TGI [6] [µM],TGI [7] [µM],TGI [8] [µM],TGI [9] [µM],GI50 [1] [µM],GI50 [3] [µM],GI50 [4] [µM],GI50 [5] [µM],GI50 [6] [µM],GI50 [7] [µM],GI50 [10] [µM],TGI [10] [µM],GI50 [8] [µM],GI50 [9] [µM],GI50 [2] [µM]
COCc1c(CO)cnc(C)c1OC1OC(CO)C(O)C(O)C1O (centres undefined),> 100,> 100,> 100,> 100,> 100,> 100,> 100,> 100,> 100,,,,,,,,,,,
N.N.N.N.O=NN1CCCCCC1(P(=O)([O-])[O-])P(=O)([O-])[O-].[Pt+4].[Pt+4],> 100,,> 100,> 100,> 100,> 100,> 100,> 100,> 100,> 100,> 100,> 100,> 100,> 100,> 100,> 100,> 100,> 100,> 100,
CCOC(CCCNCCCn1c2c(c3cc(OC)c(OC)cc3c1=O)C(=O)c1cc3c(cc1-2)OCO3)OCC,9.83,,11.2,8.6,11.8,,10.4,12.8,7.66,2.41,5.27,1.45,5.73,,2.97,6.79,13.2,6.47,1.28,
Cc1ccc2c(c1)C(C)Cc1c(ncnc1-n1cnc3cc(C)ccc31)N2C (centres undefined),5.21,13.4,15.8,,13.4,15.6,12.3,1.09,12,0.0316,0.037,,0.0421,0.0352,0.045,0.0866,21.1,0.0295,0.0459,0.0449
O=C1Nc2cc(Cl)ccc2N=CC1NC(=O)C(c1ccccc1)c1ccccc1Cl (centres undefined),> 100,,> 100,> 100,> 100,> 100,> 100,> 100,> 100,,,,,,,,> 100,,,
COc1cc2c3c(c4ccc(OC)c(OC)c4c2cc1OC)CN1CCC[C@@H]1C3,3.1,,0.264,6.39,,39.8,2.38,2.84,3.55,,,,,,,,3.88,,,
Cc1ccc(-n2c3nc(=O)n(C)c(=O)c-3nc3ccccc32)cc1,61.3,,51.8,46.5,30.2,> 100,> 100,> 100,49.2,,,,,,,,> 100,,,
CCN(CC)CC.CCOc1ccc(NC(=O)N=C=[N-])cc1.[CH-]1CCCCC1.[CH-]1CCCCC1.[CH-]1CCCCC1.[Cl-].[Sn+4],0.0289,,0.123,0.149,0.107,0.234,0.0954,0.118,0.116,0.014,0.0424,0.0521,0.0331,0.122,0.0332,0.0458,0.116,0.0466,0.0493,
C[N+](C)(C)CC(=O)N/N=C(\CCC(=O)NCCc1ccccc1)CC(=O)c1ccccc1,> 100,,> 100,> 100,> 100,> 100,> 100,> 100,> 100,,,,,,,,> 100,,,
